Source: the CheMixHub viscosity set

Assay: xn = mol fraction of the nth substance listed

CCCCCCCC(=O)OCC + CCCCO
viscosity [mPa·s], 100 kPa
Conditions	x2 = 0.1124	x2 = 0.2221	x2 = 0.3	x2 = 0.4	x2 = 0.4999	x2 = 0.5999	x2 = 0.727	x2 = 0.8203	x2 = 0.9108
293.15 K	1.508	1.507	1.521	1.548	1.587	1.651	1.795	2.014	2.351
298.15 K	1.378	1.379	1.378	1.407	1.436	1.488	1.61	1.789	2.071
303.15 K	1.264	1.261	1.263	1.295	1.307	1.36	1.468	1.611	1.842
308.15 K	1.162	1.161	1.164	1.177	1.193	1.233	1.331	1.458	1.646
313.15 K	1.069	1.062	1.06	1.07	1.09	1.122	1.194	1.307	1.467
318.15 K	0.999	0.988	0.99	0.993	1.013	1.039	1.106	1.193	1.327
323.15 K	0.932	0.927	0.92	0.925	0.94	0.958	1.011	1.091	1.208

COC(C)=O + C1CCCCC1
viscosity [mPa·s], 101 kPa
Conditions	298.15 K	308.15 K
x1 = 0.055	0.839	0.699
x1 = 0.1546	0.759	0.614
x1 = 0.2543	0.689	0.547
x1 = 0.3548	0.627	0.493
x1 = 0.4537	0.572	0.45
x1 = 0.4985	0.551	0.435
x1 = 0.5556	0.525	0.417
x1 = 0.6544	0.483	0.392
x1 = 0.7479	0.448	0.374
x1 = 0.8548	0.413	0.36
x1 = 0.9548	–	0.352

COc1ccccc1N + CCC(C)=O
viscosity [mPa·s], 100 kPa
Conditions	x1 = 0.0814	x1 = 0.1724	x1 = 0.2543	x1 = 0.3412	x1 = 0.4394	x1 = 0.5191	x1 = 0.6354	x1 = 0.7587	x1 = 0.8677
303.15 K	0.785	1.225	1.615	2.024	2.477	2.84	3.362	3.906	4.373
308.15 K	0.727	1.145	1.51	1.888	2.31	2.648	3.136	3.642	4.073
313.15 K	0.669	1.064	1.403	1.751	2.142	2.455	2.907	3.376	3.77
